Reference: ChEMBL document CHEMBL1201862, “PubChem BioAssay data set” (2004)
Activity calls are given as the source filed them.

How the values were obtained:
[1] = target: Protein Wnt-3a (Mus musculus, UniProt P27467); test: antagonism of Wnt3a pathway luciferase reporter – Wnt-LIGHT cells, luminescence, selectivity assay for Gli-SUFU antagonist project, dose response (AID 651570); type: functional; settings: read-out: IC50_Mean;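 note: Wnt-LIGHT reporter cells stimulated with conditioned medium from Wnt3a-producing cells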
Sequence of Protein Wnt-3a (P27467 whole entry): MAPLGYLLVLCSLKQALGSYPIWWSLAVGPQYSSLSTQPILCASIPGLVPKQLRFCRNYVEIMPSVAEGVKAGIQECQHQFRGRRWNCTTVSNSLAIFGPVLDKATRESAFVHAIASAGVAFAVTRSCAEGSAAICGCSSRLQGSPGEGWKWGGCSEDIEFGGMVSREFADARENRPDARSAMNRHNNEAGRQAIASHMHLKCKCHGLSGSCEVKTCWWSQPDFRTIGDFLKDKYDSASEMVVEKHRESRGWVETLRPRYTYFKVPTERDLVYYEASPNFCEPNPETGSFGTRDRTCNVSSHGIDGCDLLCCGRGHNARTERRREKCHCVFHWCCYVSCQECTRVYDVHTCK

[2] = target: T1, Rac GTPase-activating protein 1 (Homo sapiens, UniProt Q9H0H5); test: blockers of MgcRacGAP-driven Rac1 GTP hydrolysis – biochemical, ADP Hunter fluorescence, primary and confirmatory, confirmation (AID 624330); type: functional
T1 sequence (Q9H0H5 whole entry): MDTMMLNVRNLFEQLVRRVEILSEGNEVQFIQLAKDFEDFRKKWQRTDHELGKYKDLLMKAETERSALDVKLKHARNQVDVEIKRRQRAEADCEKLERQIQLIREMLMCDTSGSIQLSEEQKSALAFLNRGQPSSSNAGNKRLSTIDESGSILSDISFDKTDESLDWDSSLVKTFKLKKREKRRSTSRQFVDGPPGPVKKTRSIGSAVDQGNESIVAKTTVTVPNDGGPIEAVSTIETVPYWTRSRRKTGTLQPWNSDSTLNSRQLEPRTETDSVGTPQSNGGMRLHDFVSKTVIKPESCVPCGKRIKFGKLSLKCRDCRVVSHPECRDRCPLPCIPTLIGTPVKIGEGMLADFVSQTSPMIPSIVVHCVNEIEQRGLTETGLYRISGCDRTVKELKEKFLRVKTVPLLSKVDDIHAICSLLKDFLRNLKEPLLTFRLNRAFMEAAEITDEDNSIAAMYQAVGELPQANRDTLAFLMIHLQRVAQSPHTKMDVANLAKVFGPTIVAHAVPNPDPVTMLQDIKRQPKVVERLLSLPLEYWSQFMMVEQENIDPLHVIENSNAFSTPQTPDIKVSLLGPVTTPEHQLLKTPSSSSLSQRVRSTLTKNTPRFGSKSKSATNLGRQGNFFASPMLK

[3] = Luminescence Cell-Based Dose Confirmation HTS to Identify Activators of 5'UTR Stem-Loop Driven Alpha-Synuclein mRNA Translation in H4 Neuroglioblastoma Cells. [Related pubchem assays: 1829 (Project Summary), 1814 (Primary HTS)]; type: functional
[4] = Luminescence Cell-Based Dose Response HTS to Identify Activators of Luciferase Translation or Activity in H4 […] Cells. [Related pubchem assays: 1829 (Project Summary), 1814 (Primary HTS)]; type: functional
[5] = system: H4; test: Luminescence Cell-Based Dose Response HTS to Identify Activators of 5'UTR Stem-Loop Driven Prion Protein mRNA Translation in H4 Neuroglioblastoma Cells. [Related pubchem assays: 1829 (Project Summary), 1814 (Primary HTS)]; type: functional; settings: Homo sapiens
[6] = target: T2, Low molecular weight phosphotyrosine protein phosphatase (Homo sapiens, UniProt P24666); type: functional; settings: read-out: IC50_Mean
T2 sequence (P24666 whole entry): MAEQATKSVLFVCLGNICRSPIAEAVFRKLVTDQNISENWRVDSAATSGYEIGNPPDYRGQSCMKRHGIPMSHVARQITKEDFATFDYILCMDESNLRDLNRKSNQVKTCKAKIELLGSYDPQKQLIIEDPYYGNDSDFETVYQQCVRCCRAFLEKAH

[7] = target: T2, Low molecular weight phosphotyrosine protein phosphatase; type: functional; settings: read-out: IC50_Mean; remark: listed apart in the source
[8] = target: T3, DNA repair and recombination protein RAD54-like (Homo sapiens, UniProt Q92698); test: RAD54 Holliday junction migration blockers – biochemical, fluorescence, cherry-picked samples, dose series, confirmation (AID 651657); type: functional
T3 sequence (Q92698 whole entry): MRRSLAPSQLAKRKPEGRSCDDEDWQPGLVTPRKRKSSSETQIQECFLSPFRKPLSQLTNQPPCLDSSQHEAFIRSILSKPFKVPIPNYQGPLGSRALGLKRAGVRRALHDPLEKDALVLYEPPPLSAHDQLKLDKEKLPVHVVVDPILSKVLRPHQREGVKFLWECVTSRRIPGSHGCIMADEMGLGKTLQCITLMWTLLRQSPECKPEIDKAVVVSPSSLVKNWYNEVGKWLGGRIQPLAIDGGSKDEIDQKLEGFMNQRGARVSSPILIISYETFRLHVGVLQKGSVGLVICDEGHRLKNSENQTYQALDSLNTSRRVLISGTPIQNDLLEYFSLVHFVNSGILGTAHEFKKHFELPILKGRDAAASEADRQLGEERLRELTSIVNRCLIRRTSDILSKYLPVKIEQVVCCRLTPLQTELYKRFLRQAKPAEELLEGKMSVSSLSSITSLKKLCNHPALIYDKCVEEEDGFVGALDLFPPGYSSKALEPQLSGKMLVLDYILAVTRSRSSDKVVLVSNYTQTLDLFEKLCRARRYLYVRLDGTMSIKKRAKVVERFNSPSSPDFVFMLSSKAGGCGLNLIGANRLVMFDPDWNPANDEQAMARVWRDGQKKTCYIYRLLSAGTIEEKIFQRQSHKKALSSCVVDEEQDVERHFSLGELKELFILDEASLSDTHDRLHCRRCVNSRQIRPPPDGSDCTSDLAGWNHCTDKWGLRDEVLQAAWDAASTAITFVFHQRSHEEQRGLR

[9] = inhibition of ARNT PAS-B/TACC3 complex formation – biochemical, AlphaScreen, cherry-picked samples, confirmation (AID 651703); type: functional, Homo sapiens;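 note: His-tagged ARNT PAS-B domain paired with GST-TACC3 E629A dimer coactivator fragment; potency of inhibitors that break up the complex and lower AlphaScreen signal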
[10] = target: Induced myeloid leukemia cell differentiation protein Mcl-1 (Homo sapiens, UniProt Q07820); type: functional
Sequence of Induced myeloid leukemia cell differentiation protein Mcl-1 (Q07820 whole entry, the tested form may be a part): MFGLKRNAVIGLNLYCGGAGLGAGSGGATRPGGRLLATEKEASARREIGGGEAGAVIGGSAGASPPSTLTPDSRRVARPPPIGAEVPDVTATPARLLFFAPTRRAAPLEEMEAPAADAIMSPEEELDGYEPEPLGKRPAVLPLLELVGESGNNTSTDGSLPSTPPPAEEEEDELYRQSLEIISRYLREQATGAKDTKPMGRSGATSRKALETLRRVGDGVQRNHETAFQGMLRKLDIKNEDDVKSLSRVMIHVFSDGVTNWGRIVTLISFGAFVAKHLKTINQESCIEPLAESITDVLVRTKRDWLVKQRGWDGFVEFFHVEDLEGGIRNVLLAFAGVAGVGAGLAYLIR

[11] = target: Hepatocyte nuclear factor 4-alpha (Homo sapiens, UniProt P41235); type: functional, cell-based;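 note: biochemical luminescence-based dose-response counterscreen measuring inhibition of HNF4 dimerization, run alongside a screen for blockers of ABHD5–perilipin-5 interaction; split luciferase complementation of HNF4 fusion proteins in cell lysate measuring dimerization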
Sequence of Hepatocyte nuclear factor 4-alpha (P41235 whole entry, the tested form may be a part): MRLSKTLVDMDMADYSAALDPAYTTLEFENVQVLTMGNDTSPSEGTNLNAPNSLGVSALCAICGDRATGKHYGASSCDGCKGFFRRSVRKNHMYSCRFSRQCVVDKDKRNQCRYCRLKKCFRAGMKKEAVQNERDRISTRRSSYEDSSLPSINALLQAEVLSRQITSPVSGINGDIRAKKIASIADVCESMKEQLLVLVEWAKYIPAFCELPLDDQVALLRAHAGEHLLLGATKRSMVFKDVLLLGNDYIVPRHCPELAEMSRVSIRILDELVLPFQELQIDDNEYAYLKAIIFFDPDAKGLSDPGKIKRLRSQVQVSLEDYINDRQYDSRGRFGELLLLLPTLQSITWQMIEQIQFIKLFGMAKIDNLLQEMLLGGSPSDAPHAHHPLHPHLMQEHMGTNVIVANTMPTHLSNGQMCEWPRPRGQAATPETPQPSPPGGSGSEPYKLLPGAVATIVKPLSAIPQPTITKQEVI

[12] = target: Adenosylmethionine-8-amino-7-oxononanoate aminotransferase (Mycobacterium tuberculosis, UniProt P9WQ81); test: Mycobacterium tuberculosis BioA enzyme inhibitor Measured in Biochemical System Using Plate Reader - 2163-02_Inhibitor_Dose_CherryPick_Activity.; type: functional, Mycobacterium tuberculosis UT205
Sequence of Adenosylmethionine-8-amino-7-oxononanoate aminotransferase (P9WQ81 whole entry): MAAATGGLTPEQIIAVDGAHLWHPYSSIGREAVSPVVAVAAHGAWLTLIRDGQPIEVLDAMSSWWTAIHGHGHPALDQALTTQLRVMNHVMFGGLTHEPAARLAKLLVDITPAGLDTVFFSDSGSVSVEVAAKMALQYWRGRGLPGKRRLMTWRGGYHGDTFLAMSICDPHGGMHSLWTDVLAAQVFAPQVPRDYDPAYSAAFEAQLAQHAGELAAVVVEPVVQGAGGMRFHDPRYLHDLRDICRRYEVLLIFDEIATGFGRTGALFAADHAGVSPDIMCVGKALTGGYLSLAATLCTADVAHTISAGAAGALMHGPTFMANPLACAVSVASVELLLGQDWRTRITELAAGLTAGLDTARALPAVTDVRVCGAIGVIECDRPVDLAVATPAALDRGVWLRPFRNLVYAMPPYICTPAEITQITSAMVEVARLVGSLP

[13] = target: T4, Sentrin-specific protease 8 (Homo sapiens, UniProt Q96LD8); test: inhibition of human SENP8 cleavage activity – biochemical, luminescence, SAR follow-up (AID 504501); type: functional
T4 sequence (Q96LD8 whole entry): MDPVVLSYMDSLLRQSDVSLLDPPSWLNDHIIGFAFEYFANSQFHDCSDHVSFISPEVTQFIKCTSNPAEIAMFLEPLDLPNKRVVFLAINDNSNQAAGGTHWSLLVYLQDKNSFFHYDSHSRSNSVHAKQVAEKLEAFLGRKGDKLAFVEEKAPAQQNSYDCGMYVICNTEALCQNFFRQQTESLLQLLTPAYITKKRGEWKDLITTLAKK

[14] = target: T5, Caspase-3 (Homo sapiens, UniProt P42574); test: SAR Analysis of small molecule inhibitors of Sentrin-specific proteases (SENPs) using a Caspase-3 Selectivity assay. [Related pubchem assays (depositor defined):AID2540, AID2599, AID434973, AID489001]; type: functional
T5 sequence (P42574 whole entry): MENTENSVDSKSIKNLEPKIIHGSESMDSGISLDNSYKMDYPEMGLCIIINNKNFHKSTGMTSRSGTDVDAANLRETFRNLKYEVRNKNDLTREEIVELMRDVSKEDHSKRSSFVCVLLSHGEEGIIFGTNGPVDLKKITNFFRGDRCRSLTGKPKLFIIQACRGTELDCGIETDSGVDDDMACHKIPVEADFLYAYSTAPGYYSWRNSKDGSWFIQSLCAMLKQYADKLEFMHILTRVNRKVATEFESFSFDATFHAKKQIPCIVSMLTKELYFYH

[15] = target: T6, Sentrin-specific protease 6 (Homo sapiens, UniProt Q9GZR1); test: SAR Analysis of small molecule inhibitors of Sentrin-specific protease 6 (SENP6) using a Luminescent assay. [Related pubchem assays (depositor defined):AID2582, AID2599]; type: functional
T6 sequence (Q9GZR1 whole entry): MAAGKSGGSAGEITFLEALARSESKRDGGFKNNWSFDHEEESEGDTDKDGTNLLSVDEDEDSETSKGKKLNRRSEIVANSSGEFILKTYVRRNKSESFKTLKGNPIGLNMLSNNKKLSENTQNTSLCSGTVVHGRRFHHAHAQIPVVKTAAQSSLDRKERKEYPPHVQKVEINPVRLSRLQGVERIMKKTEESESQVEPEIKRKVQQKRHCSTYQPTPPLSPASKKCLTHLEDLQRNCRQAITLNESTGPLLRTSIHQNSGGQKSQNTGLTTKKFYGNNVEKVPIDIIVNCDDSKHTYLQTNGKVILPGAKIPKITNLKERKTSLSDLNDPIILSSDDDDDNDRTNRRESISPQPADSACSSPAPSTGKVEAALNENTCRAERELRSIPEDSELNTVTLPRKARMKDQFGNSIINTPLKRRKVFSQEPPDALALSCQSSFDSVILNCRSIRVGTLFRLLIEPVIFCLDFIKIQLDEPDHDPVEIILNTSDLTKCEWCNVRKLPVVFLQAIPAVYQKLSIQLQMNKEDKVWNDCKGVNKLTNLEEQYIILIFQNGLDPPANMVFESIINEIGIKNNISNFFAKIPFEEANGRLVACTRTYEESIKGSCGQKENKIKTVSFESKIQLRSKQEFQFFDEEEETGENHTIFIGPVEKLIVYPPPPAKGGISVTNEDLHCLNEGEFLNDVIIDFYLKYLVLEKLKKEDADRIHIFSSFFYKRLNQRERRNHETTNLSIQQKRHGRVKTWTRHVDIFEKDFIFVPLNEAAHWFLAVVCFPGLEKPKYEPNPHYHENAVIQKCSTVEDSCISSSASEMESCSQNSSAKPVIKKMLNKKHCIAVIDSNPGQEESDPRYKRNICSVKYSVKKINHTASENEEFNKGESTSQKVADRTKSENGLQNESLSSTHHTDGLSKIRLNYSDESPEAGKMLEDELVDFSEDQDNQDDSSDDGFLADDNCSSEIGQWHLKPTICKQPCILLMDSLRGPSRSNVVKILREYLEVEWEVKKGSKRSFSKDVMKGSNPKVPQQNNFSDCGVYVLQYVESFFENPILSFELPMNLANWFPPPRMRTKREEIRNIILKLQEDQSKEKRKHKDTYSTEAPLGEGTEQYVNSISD

[16] = target: T7, Sentrin-specific protease 7 (Homo sapiens, UniProt Q9BQF6); test: inhibition of human SENP7 cleavage activity – biochemical, luminescence, SAR follow-up (AID 504497); type: functional
T7 sequence (Q9BQF6 whole entry): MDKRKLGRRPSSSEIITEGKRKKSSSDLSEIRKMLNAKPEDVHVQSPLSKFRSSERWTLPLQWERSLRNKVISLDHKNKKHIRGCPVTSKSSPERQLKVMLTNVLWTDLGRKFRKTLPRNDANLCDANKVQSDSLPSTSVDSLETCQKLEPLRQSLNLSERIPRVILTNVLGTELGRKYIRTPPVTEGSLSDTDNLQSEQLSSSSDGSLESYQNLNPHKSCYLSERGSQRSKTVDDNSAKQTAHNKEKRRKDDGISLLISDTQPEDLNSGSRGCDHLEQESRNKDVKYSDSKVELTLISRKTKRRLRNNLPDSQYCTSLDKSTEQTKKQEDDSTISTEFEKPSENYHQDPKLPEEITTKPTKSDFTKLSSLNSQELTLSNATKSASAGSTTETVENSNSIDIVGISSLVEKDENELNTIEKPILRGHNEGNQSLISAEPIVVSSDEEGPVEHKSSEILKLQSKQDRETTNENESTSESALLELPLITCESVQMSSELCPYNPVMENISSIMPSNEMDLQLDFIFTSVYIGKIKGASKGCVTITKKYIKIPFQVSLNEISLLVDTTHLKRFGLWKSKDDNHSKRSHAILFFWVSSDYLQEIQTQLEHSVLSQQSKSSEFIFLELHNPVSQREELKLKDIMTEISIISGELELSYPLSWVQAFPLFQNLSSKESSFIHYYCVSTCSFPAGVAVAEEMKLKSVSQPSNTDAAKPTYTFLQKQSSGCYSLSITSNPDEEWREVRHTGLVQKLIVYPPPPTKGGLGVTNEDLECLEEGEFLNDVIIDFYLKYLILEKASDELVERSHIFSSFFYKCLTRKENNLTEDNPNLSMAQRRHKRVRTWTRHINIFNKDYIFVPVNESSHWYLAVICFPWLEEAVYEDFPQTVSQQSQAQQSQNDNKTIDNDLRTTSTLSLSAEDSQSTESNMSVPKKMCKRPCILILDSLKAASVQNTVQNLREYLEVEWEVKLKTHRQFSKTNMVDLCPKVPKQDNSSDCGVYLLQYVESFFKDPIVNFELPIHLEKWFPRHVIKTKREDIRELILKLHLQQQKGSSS

[17] = target: Mitochondrial peptide methionine sulfoxide reductase (Bos taurus, UniProt P54149); test: Absorbance-based biochemical high throughput dose response assay for activators of Methionine sulfoxide reductase A (MsrA).; type: functional
Sequence of Mitochondrial peptide methionine sulfoxide reductase (P54149 whole entry): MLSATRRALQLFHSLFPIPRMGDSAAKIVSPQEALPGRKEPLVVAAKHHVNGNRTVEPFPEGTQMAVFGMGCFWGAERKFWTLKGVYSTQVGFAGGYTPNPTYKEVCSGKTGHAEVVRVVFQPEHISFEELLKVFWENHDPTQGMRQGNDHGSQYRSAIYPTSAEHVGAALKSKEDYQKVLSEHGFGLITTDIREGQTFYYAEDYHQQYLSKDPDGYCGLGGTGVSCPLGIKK

For `Cc1nc2ncccn2c1-c1csc(Nc2ccc(O)cc2)n1`, the IC50 [1] was 48.9 µM (inactive) and the IC50 [2] was 14.3 µM (active).

For `CC(=O)c1c(C)[nH]c(C(=O)OCC(=O)Nc2cccc(S(=O)(=O)N3CCCC3)c2)c1C`, the IC50 [1] was 5.02 µM (active).

For `Cc1ccc(-c2nc(NCCN3CCOCC3)c3ccccc3n2)cc1`, the EC50 [3] was 56.3 µM (active), the EC50 [4] was 21.1 µM (active) and the EC50 [5] was 16.9 µM (active). The IC50 [6] was 30.7 µM (inactive), the IC50 [7] was 16 µM (active) and the AC50 [8] was 24.8 µM (active).

In the case of `CC(=O)N1CN(Cc2ccccn2)Cc2c1sc1c2CCCC1`, the AC50 [9] is reported as 87.9 µM (active).

For `CS(=O)(=O)c1ccc(C(=O)NCCN2C(=O)S/C(=C\c3cccnc3)C2=O)cc1[N+](=O)[O-]`, the IC50 [10] was 2.17 µM (active) and the IC50 [11] was 5.89 µM (active).

With `COc1cccc(NC(=O)CCC2CCN(C(=O)c3ccc(C(C)=O)s3)CC2)c1` the AC50 [12] was 508 nM (active).

With `Cc1cc(C(F)F)nn1CC(=O)Nc1sc2c(c1C#N)CCC2` the IC50 [13] was > 99 µM (inactive), the IC50 [14] was > 99 µM (inactive) and the IC50 [15] was > 99 µM (inactive). For the same compound, the IC50 [16] was > 99 µM (inactive).

With `O=C(NCc1ccccn1)c1c(-c2ccccc2)sc2ccccc12` the AC50 [9] was 121 µM (active).

With `CCCCc1ccc2nc(NC(=O)C3CCCCC3)sc2c1` the IC50 [13] was > 99 µM (inactive), the IC50 [14] was > 99 µM (inactive) and the IC50 [15] was > 99 µM (inactive). For the same compound, the IC50 [16] was > 99 µM (inactive).

In the case of `CC1(C(=O)Nc2ccccc2)CCN1C(=O)Cc1ccc(-c2ccccc2)cc1` (stereo not given), the EC50 [17] is reported as > 104 µM (inactive).

For `CCCCCNC(=O)C(c1cccc2ccccc12)n1c(=O)c(-c2ccco2)nc2ccccc21` (stereo not given), the IC50 [11] was 2.83 µM (active).

With `CC(C)(C)c1cc(C(=O)Nc2cccnc2)cc(C(=O)Nc2cccnc2)c1` the AC50 [12] was 1280 nM (active).
